Measurements from patent US20240270762A1, “PENICILLIN-BINDING PROTEIN INHIBITORS” (priority 2021, published 2024).
In brackets after ≈: the same amount, converted by molar mass.

Key:
A. baumannii ATCC 17978 = experiment: microbe, parasite or virus in culture; assay type: cell-based; conditions: Acinetobacter baumannii, ATCC17978, read-out: MIC, A. baumannii ATCC 17978
[1] = target: T1, PBP3 from Acinetobacter baumannii (ATCC 19606) (Acinetobacter baumannii, UniProt A0ABX6CK25); experiment: Bocillin-FL fluorescence polarization competition binding, A. baumannii PBP3; conditions: fluorescence polarization competition binding assay using Bocillin-FL; read-out: A. baumannii PBP3 Potency
T1 sequence (A0ABX6CK25 64-610): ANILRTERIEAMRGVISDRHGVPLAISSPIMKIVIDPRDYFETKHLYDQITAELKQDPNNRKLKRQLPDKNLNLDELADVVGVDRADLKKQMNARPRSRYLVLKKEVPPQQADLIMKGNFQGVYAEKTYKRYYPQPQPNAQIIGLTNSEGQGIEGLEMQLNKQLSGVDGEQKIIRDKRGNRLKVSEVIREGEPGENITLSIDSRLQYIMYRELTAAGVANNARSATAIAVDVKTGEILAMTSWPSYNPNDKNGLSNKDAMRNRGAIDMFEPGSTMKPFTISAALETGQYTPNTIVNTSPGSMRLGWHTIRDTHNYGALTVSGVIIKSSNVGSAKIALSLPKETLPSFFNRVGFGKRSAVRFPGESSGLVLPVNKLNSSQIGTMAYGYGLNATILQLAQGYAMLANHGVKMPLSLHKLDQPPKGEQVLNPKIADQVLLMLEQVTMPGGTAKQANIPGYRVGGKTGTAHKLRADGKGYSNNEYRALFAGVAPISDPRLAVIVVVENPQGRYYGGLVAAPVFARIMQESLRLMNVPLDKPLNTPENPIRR
How it was run: (§1)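 Purified PBP was preincubated with inhibitor (E. coli PBP3 1.5 μM, 30 min; P. aeruginosa PBP3 0.75 μM, A. baumannii PBP3 0.2 μM and PBP1a 1 μM, 15 min), then Bocillin-FL (0.1 μM; 0.05 μM for PBP1a) added and FP read up to 60 min. EC50 = 50% loss of bound probe.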

[2] = target: T2, PBP1a from Acinetobacter baumannii (ATCC 19606) (Acinetobacter baumannii, UniProt A0ABX6CK30); experiment: Bocillin-FL fluorescence polarization competition binding, A. baumannii PBP1a; conditions: fluorescence polarization competition binding assay using Bocillin-FL; read-out: A. baumannii PBP1a Potency
T2 sequence (A0ABX6CK30 1-851): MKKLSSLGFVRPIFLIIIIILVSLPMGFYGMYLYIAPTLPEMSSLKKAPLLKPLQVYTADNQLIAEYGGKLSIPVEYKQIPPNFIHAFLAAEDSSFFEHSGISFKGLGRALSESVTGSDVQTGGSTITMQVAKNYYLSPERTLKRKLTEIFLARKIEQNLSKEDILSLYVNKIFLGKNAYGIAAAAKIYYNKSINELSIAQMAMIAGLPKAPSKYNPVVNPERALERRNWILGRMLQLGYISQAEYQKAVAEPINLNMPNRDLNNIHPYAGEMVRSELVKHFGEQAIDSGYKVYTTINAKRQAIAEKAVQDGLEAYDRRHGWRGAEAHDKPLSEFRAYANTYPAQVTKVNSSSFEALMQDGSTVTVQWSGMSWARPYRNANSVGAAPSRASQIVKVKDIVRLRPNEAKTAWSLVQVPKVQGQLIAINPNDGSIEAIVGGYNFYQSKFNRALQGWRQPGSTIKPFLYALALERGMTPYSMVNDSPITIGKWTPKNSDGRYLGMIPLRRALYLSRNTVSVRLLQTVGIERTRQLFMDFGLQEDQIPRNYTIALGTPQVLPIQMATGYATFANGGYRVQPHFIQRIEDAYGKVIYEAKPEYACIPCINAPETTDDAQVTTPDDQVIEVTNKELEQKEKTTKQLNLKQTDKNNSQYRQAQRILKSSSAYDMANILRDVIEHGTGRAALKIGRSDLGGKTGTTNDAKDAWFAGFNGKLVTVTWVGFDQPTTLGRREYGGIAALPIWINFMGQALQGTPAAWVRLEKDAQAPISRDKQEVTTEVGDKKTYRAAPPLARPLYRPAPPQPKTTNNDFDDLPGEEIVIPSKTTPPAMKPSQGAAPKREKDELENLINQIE
How it was run: as §1

Structure (SMILES)	MIC (A. baumannii ATCC 17978) [µg/mL]	IC50 [1] [µM]	IC50 [2] [µM]
O=C(CN1CCN(C(=O)NC(C(=O)N[C@H]2Cc3ccc(F)c(C(=O)O)c3OB2O)c2cc(F)c(O)c(O)c2Cl)C(=O)C1=O)NCc1ccccc1 (stereo partly drawn) [Example 238]	< 1	< 10	> 250
O=C(CN1CCN(C(=O)N[C@@H](C(=O)N[C@H]2Cc3ccc(F)c(C(=O)O)c3OB2O)c2cc(F)c(O)c(O)c2Cl)C(=O)C1=O)NCc1ccncc1 [Example 239, (R)-3-((R)-2-(2-chloro-5-fluoro-3,4-dihydroxyphenyl)-2-(2,3-dioxo-4-(2-oxo-2-((pyridin-4-ylmethyl)amino)ethyl)piperazine-1-carboxamido)acetamido)-7-fluoro-2-hydroxy-3,4-dihydro-2H-benzo[e][1,2]oxaborinine-8-carboxylic acid]	< 1	< 10	> 250
O=C(CN1CCN(C(=O)NC(C(=O)N[C@H]2Cc3ccc(F)c(C(=O)O)c3OB2O)c2cc(F)c(O)c(O)c2Cl)C(=O)C1=O)NCc1cccnc1 (stereo partly drawn) [Example 240, (3R)-3-(2-(2-chloro-5-fluoro-3,4-dihydroxyphenyl)-2-(2,3-dioxo-4-(2-oxo-2-((pyridin-3-ylmethyl)amino)ethyl)piperazine-1-carboxamido)acetamido)-7-fluoro-2-hydroxy-3,4-dihydro-2H-benzo[e][1,2]oxaborinine-8-carboxylic acid]	< 1	< 10	> 250
O=C(CN1CCN(C(=O)N[C@@H](C(=O)N[C@H]2Cc3ccc(F)c(C(=O)O)c3OB2O)c2cc(F)c(O)c(O)c2Cl)C(=O)C1=O)NCc1nccs1 [Example 241, (R)-3-((R)-2-(2-chloro-5-fluoro-3,4-dihydroxyphenyl)-2-(2,3-dioxo-4-(2-oxo-2-((thiazol-2-ylmethyl)amino)ethyl)piperazine-1-carboxamido)acetamido)-7-fluoro-2-hydroxy-3,4-dihydro-2H-benzo[e][1,2]oxaborinine-8-carboxylic acid]	< 1	< 10	> 250
O=C(NCCN1CCN(C(=O)NC(C(=O)N[C@H]2Cc3ccc(F)c(C(=O)O)c3OB2O)c2cc(F)c(O)c(O)c2Cl)C1=O)c1ccccc1 (stereo partly drawn) [Example 242, (3R)-3-(2-(3-(2-benzamidoethyl)-2-oxoimidazolidine-1-carboxamido)-2-(2-chloro-5-fluoro-3,4-dihydroxyphenyl)acetamido)-7-fluoro-2-hydroxy-3,4-dihydro-2H-benzo[e][1,2]oxaborinine-8-carboxylic acid]	< 1	< 10	> 250
O=C(NCCN1CCN(C(=O)NC(C(=O)N[C@H]2Cc3ccc(F)c(C(=O)O)c3OB2O)c2cc(F)c(O)c(O)c2Cl)C1=O)c1ccc(O)cc1 (stereo partly drawn) [Example 243, (3R)-3-(2-(2-chloro-5-fluoro-3,4-dihydroxyphenyl)-2-(3-(2-(4-hydroxybenzamido)ethyl)-2-oxoimidazolidine-1-carboxamido)acetamido)-7-fluoro-2-hydroxy-3,4-dihydro-2H-benzo[e][1,2]oxaborinine-8-carboxylic acid]	< 1	< 10	> 250
O=C(NCCN1CCN(C(=O)NC(C(=O)N[C@H]2Cc3ccc(F)c(C(=O)O)c3OB2O)c2cc(F)c(O)c(O)c2Cl)C1=O)c1cccc(O)c1 (stereo partly drawn) [Example 244, (3R)-3-(2-(2-chloro-5-fluoro-3,4-dihydroxyphenyl)-2-(3-(2-(3-hydroxybenzamido)ethyl)-2-oxoimidazolidine-1-carboxamido)acetamido)-7-fluoro-2-hydroxy-3,4-dihydro-2H-benzo[e][1,2]oxaborinine-8-carboxylic acid]	< 1	< 10	> 250
O=C(NCCN1CCN(C(=O)NC(C(=O)N[C@H]2Cc3ccc(F)c(C(=O)O)c3OB2O)c2cc(F)c(O)c(O)c2Cl)C1=O)c1ccncc1 (stereo partly drawn) [Example 245, (3R)-3-(2-(2-chloro-5-fluoro-3,4-dihydroxyphenyl)-2-(3-(2-(isonicotinamido)ethyl)-2-oxoimidazolidine-1-carboxamido)acetamido)-7-fluoro-2-hydroxy-3,4-dihydro-2H-benzo[e][1,2]oxaborinine-8-carboxylic acid]	< 1	< 10	> 250
O=C(NCCN1CCN(C(=O)NC(C(=O)N[C@H]2Cc3ccc(F)c(C(=O)O)c3OB2O)c2cc(F)c(O)c(O)c2Cl)C1=O)c1cccnc1 (stereo partly drawn) [Example 246, (3R)-3-(2-(2-chloro-5-fluoro-3,4-dihydroxyphenyl)-2-(3-(2-(nicotinamido)ethyl)-2-oxoimidazolidine-1-carboxamido)acetamido)-7-fluoro-2-hydroxy-3,4-dihydro-2H-benzo[e][1,2]oxaborinine-8-carboxylic acid]	< 1	< 10	> 250
O=C(NCCN1CCN(C(=O)NC(C(=O)N[C@H]2Cc3ccc(F)c(C(=O)O)c3OB2O)c2cc(F)c(O)c(O)c2Cl)C1=O)c1nccs1 (stereo partly drawn) [Example 247, (3R)-3-(2-(2-chloro-5-fluoro-3,4-dihydroxyphenyl)-2-(2-oxo-3-(2-(thiazole-2-carboxamido)ethyl)imidazolidine-1-carboxamido)acetamido)-7-fluoro-2-hydroxy-3,4-dihydro-2H-benzo[e][1,2]oxaborinine-8-carboxylic acid]	< 1	< 10	> 250
O=C(O)c1c(F)ccc2c1OB(O)[C@@H](NC(=O)C(NC(=O)N1CCN(CCNC(=O)[C@@H]3CCCN3)C1=O)c1cc(F)c(O)c(O)c1Cl)C2 (stereo partly drawn) [Example 248, (3R)-3-(2-(2-chloro-5-fluoro-3,4-dihydroxyphenyl)-2-(2-oxo-3-(2-((S)-pyrrolidine-2-carboxamido)ethyl)imidazolidine-1-carboxamido)acetamido)-7-fluoro-2-hydroxy-3,4-dihydro-2H-benzo[e][1,2]oxaborinine-8-carboxylic acid]	< 1	< 10	> 250
O=C(NCCN1CCN(C(=O)NC(C(=O)N[C@H]2Cc3ccc(F)c(C(=O)O)c3OB2O)c2cc(F)c(O)c(O)c2Cl)C1=O)Nc1ccncc1 (stereo partly drawn) [Example 250, (3R)-3-(2-(2-chloro-5-fluoro-3,4-dihydroxyphenyl)-2-(2-oxo-3-(2-(3-(pyridin-4-yl)ureido)ethyl)imidazolidine-1-carboxamido)acetamido)-7-fluoro-2-hydroxy-3,4-dihydro-2H-benzo[e][1,2]oxaborinine-8-carboxylic acid]	< 1	< 10	> 250
O=C(NCCN1CCN(C(=O)NC(C(=O)N[C@H]2Cc3ccc(F)c(C(=O)O)c3OB2O)c2cc(F)c(O)c(O)c2Cl)C1=O)Nc1cccnc1 (stereo partly drawn) [Example 251, (3R)-3-(2-(2-chloro-5-fluoro-3,4-dihydroxyphenyl)-2-(2-oxo-3-(2-(3-(pyridin-3-yl)ureido)ethyl)imidazolidine-1-carboxamido)acetamido)-7-fluoro-2-hydroxy-3,4-dihydro-2H-benzo[e][1,2]oxaborinine-8-carboxylic acid]	< 1	< 10	> 250
O=C(NCCCN1CCN(C(=O)N[C@H](C(=O)N[C@H]2Cc3ccc(F)c(C(=O)O)c3OB2O)c2cc(F)c(O)c(O)c2Cl)C1=O)c1ccccc1 [Example 252, (R)-3-((S)-2-(3-(3-benzamidopropyl)-2-oxoimidazolidine-1-carboxamido)-2-(2-chloro-5-fluoro-3,4-dihydroxyphenyl)acetamido)-7-fluoro-2-hydroxy-3,4-dihydro-2H-benzo[e][1,2]oxaborinine-8-carboxylic acid]	8 to 16 (≈ 11.2 to 22.4 µM)	50 to 250	> 250
